Literature values in paper PMC9324670, “Pd(II) Binding Strength of a Novel Ambidentate Dipeptide-Hydroxypyridinonate Ligand: A Solution Equilibrium Study” (Molecules, 2022).

Key:
[1] = pH-potentiometry
[2] = parameters: method as in doi:10.1016/S0020-1693(00)91874-7; details: fixed values used in the equilibrium models

For Cc1c(O)c(=O)ccn1C [H(L4), 3-hydroxy-1,2-dimethylpyridin-4(1H)-one], the “pKOH(3)” value [1] is listed as 9.76.
In the case of [Cl][Pd][Cl] [[PdCl2]], the “logβ (stability constant of the complex in the Pd(II)–Cl^− system)” value (“logβ” for short) [2] is listed as 7.76.
For [Cl][Pd-]([Cl])[Cl] [[PdCl3]^−], the “logβ” value [2] is given as 10.17.
In the case of [Cl][Pd-2]([Cl])([Cl])[Cl] [[PdCl4]^2−], the “logβ” value [2] is given as 11.56.
In the case of [Cl][Pd+] [[PdCl]^+], the “logβ” value [2] is listed as 4.47.
